Where “and” joins values, the source holds several entries; their conditions need not be identical. Equal values may be shown once. Inconclusive results and toxic doses are left out. Rule for the calls: active = survival T/C of 150% or more; inactive = T/C below 125% in these data.
Test system: P388 leukemia ip, CD2F1 mice, survival T/C
Test: NCI In Vivo Anticancer Drug Screen. Data for tumor model P388 Leukemia (intraperitoneal) in CD2F1 (CDF1) mice
Conditions: endpoint: median survival time, higher = longer survival
How it was run: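 Mice carrying the transplanted tumor received test compound or vehicle. Survival was recorded in each group, and the value is the treated-group measurement divided by that of the vehicle-treated control group.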

[1] = dose: 100.0 mg/kg/injection, schedule: Q01DX005 (ip), vehicle: saline with Tween-80
[2] = dose: 200.0 mg/kg/injection, schedule: Q01DX005 (ip), vehicle: saline with Tween-80
[3] = dose: 50.0 mg/kg/injection, schedule: Q01DX005 (ip), vehicle: saline with Tween-80
[4] = dose: 100.0 mg/kg/injection, schedule: Q01DX001 (ip), vehicle: Klucel (hydroxypropylcellulose) (HPC)
[5] = dose: 200.0 mg/kg/injection, schedule: Q01DX001 (ip), vehicle: Klucel (hydroxypropylcellulose) (HPC)
[6] = dose: 50.0 mg/kg/injection, schedule: Q01DX005 (ip), vehicle: Klucel (hydroxypropylcellulose) (HPC)
[7] = dose: 100.0 mg/kg/injection, schedule: Q01DX005 (ip), vehicle: Klucel (hydroxypropylcellulose) (HPC)
[8] = dose: 60.0 mg/kg/injection, schedule: Q01DX005 (ip), vehicle: saline with Tween-80
[9] = dose: 120.0 mg/kg/injection, schedule: Q01DX005 (ip), vehicle: saline with Tween-80
[10] = dose: 240.0 mg/kg/injection, schedule: Q01DX005 (ip), vehicle: saline with Tween-80
[11] = dose: 200.0 mg/kg/injection, schedule: Q01DX005 (ip), vehicle: Klucel (hydroxypropylcellulose) (HPC)
[12] = dose: 50.0 mg/kg/injection, schedule: Q01DX009 (ip), vehicle: saline with Tween-80
[13] = dose: 100.0 mg/kg/injection, schedule: Q01DX009 (ip), vehicle: saline with Tween-80
[14] = dose: 200.0 mg/kg/injection, schedule: Q01DX009 (ip), vehicle: saline with Tween-80

Measured: T/C

CN(N=O)C(=O)NCCNC(=O)C1OC(n2cnc3c(=O)[nH]cnc32)C(O)C1O (stereo not given)
inactive: [1] 106 % of control | [2] 109 % of control | dose: 400.0 mg/kg/injection, schedule: Q01DX005 (ip), vehicle: saline with Tween-80 115 % of control

COC1CCCCC1C(=O)C(C#N)C1CCCCC1C1CCCCC1 (stereo not given)
inactive: [3] 100 % of control | [1] 98 % of control | [2] 96 % of control

Cc1cccc(C)c1NC(=O)C1C(=O)C(=O)N(c2c(C)cccc2C)C1=O (stereo not given)
inactive: dose: 25.0 mg/kg/injection, schedule: Q04DX002 (ip), vehicle: saline with Tween-80 100 % of control | dose: 50.0 mg/kg/injection, schedule: Q04DX002 (ip), vehicle: saline with Tween-80 101 % of control | dose: 100.0 mg/kg/injection, schedule: Q04DX002 (ip), vehicle: saline with Tween-80 98 % of control and 100 % of control

NNc1ccc(N(CCO)CCO)nn1
inactive: dose: 50.0 mg/kg/injection, schedule: Q01DX009 (ip), vehicle: saline 93 % of control | dose: 100.0 mg/kg/injection, schedule: Q01DX009 (ip), vehicle: saline 100 % of control | dose: 200.0 mg/kg/injection, schedule: Q01DX009 (ip), vehicle: saline 105 % of control

C=C1CC2C3CCC=C3C(c3ccc(OC)cc3)C2C1=O (stereo not given)
inactive: dose: 25.0 mg/kg/injection, schedule: Q01DX001 (ip), vehicle: Klucel (hydroxypropylcellulose) (HPC) 112 % of control | dose: 50.0 mg/kg/injection, schedule: Q01DX001 (ip), vehicle: Klucel (hydroxypropylcellulose) (HPC) 109 % of control | [4] 107 % of control and 111 % of control | [5] 106 % of control

CN(C)c1ncnc2c1ccn2CC(O)CO (stereo not given)
inactive: dose: 50.0 mg/kg/injection, schedule: Q01DX005 (ip), vehicle: distilled water + alcohol 109 % of control | dose: 100.0 mg/kg/injection, schedule: Q01DX005 (ip), vehicle: distilled water + alcohol 101 % of control | dose: 200.0 mg/kg/injection, schedule: Q01DX005 (ip), vehicle: distilled water + alcohol 97 % of control

Cc1c(C)n(-c2ccccc2)c2nc(C)n(-c3ccccc3Cl)c(=N)c12
inactive: [6] 97 % of control | [7] 90 % of control

CC(C(=O)c1cc(Cl)cc(Cl)c1O)C1(O)C(=O)Nc2ccccc21 (stereo not given)
inactive: [8] 107 % of control | [9] 100 % of control | [10] 99 % of control

Cc1nc([N+](=O)[O-])cn1-c1nc2ccccn2c1[N+](=O)[O-]
inactive: dose: 50.0 mg/kg/injection, schedule: Q01DX009 (ip), vehicle: Klucel (hydroxypropylcellulose) (HPC) 92 % of control | dose: 100.0 mg/kg/injection, schedule: Q01DX009 (ip), vehicle: Klucel (hydroxypropylcellulose) (HPC) 94 % of control | dose: 200.0 mg/kg/injection, schedule: Q01DX009 (ip), vehicle: Klucel (hydroxypropylcellulose) (HPC) 91 % of control

COC(=O)c1ccccc1N1C(=O)c2ccccc2NP1(=O)Oc1ccccc1 (stereo not given)
inactive: dose: 25.0 mg/kg/injection, schedule: Q01DX005 (ip), vehicle: Klucel (hydroxypropylcellulose) (HPC) 101 % of control | [6] 104 % of control | [7] 106 % of control | [11] 91 % of control

c1ccc(SCc2ccc3c(c2)OCO3)cc1
inactive: [4] 107 % of control | [5] 102 % of control | dose: 400.0 mg/kg/injection, schedule: Q01DX001 (ip), vehicle: Klucel (hydroxypropylcellulose) (HPC) 100 % of control

COCC1=C(C)CC(CC(=O)OC)C1=O (stereo not given)
inactive: dose: 60.0 mg/kg/injection, schedule: Q01DX005 (ip), vehicle: saline 98 % of control | dose: 120.0 mg/kg/injection, schedule: Q01DX005 (ip), vehicle: saline 98 % of control | dose: 240.0 mg/kg/injection, schedule: Q01DX005 (ip), vehicle: saline 101 % of control

O=C(Nc1ccc2oc3ccc(Cl)cc3c(=O)c2c1)c1ccc(Cl)cc1Cl
inactive: [6] 97 % of control | [7] 96 % of control | [11] 96 % of control

COc1cc(C/C(=N/N=C(N)N)C(=O)O)cc(OC)c1OC
inactive: dose: 100.0 mg/kg/injection, schedule: Q01DX001 (ip), vehicle: saline 99 % of control | dose: 200.0 mg/kg/injection, schedule: Q01DX001 (ip), vehicle: saline 100 % of control | dose: 400.0 mg/kg/injection, schedule: Q01DX001 (ip), vehicle: saline 100 % of control

O=c1[nH]cc(Cn2cnc3ncccc3c2=O)c(=O)[nH]1
inactive: dose: 100.0 mg/kg/injection, schedule: Q01DX001 (ip), vehicle: suspension in saline 93 % of control | dose: 200.0 mg/kg/injection, schedule: Q01DX001 (ip), vehicle: suspension in saline 105 % of control | dose: 400.0 mg/kg/injection, schedule: Q01DX001 (ip), vehicle: suspension in saline 112 % of control

O=C(O)c1ccc(S(=O)(=O)OCCCl)cc1
inactive: dose: 6.25 mg/kg/injection, schedule: Q01DX009 (ip), vehicle: Klucel (hydroxypropylcellulose) (HPC) 107 % of control | dose: 12.5 mg/kg/injection, schedule: Q01DX009 (ip), vehicle: Klucel (hydroxypropylcellulose) (HPC) 100 % of control | dose: 25.0 mg/kg/injection, schedule: Q01DX009 (ip), vehicle: Klucel (hydroxypropylcellulose) (HPC) 110 % of control

CCc1cccc(CC)c1NC(=O)NN(CC)CC
inactive: [8] 93 % of control | [9] 103 % of control

CCOC(=O)/C=C(\C(=O)OCC)N(O)C(=O)CN1C(=O)c2ccccc2C1=O
inactive: dose: 50.0 mg/kg/injection, schedule: Q01DX001 (ip), vehicle: saline with Tween-80 106 % of control | dose: 100.0 mg/kg/injection, schedule: Q01DX001 (ip), vehicle: saline with Tween-80 105 % of control | dose: 200.0 mg/kg/injection, schedule: Q01DX001 (ip), vehicle: saline with Tween-80 98 % of control | dose: 400.0 mg/kg/injection, schedule: Q01DX001 (ip), vehicle: saline with Tween-80 93 % of control

CC1CCCCN1C (stereo not given)
inactive: dose: 25.0 mg/kg/injection, schedule: Q01DX005 (ip), vehicle: saline with Tween-80 90 % of control | [3] 91 % of control | [1] 89 % of control

CCOC1CSc2ccccc2C(c2ccccc2)=N1 (stereo not given)
inactive: dose: 50.0 mg/kg/injection, schedule: Q01DX005 (ip), vehicle: Klucel + Tween-80 107 % of control | dose: 100.0 mg/kg/injection, schedule: Q01DX005 (ip), vehicle: Klucel + Tween-80 93 % of control | dose: 200.0 mg/kg/injection, schedule: Q01DX005 (ip), vehicle: Klucel + Tween-80 89 % of control

Nc1nc(N)c2cc(N3CCCC3c3ccc(Cl)cc3)ccc2n1 (stereo not given)
inactive: dose: 1.56 mg/kg/injection, schedule: Q01DX005 (ip), vehicle: Klucel (hydroxypropylcellulose) (HPC) 98 % of control | dose: 1.56 mg/kg/injection, schedule: Q01DX009 (ip), vehicle: Klucel (hydroxypropylcellulose) (HPC) 100 % of control and 101 % of control | dose: 3.12 mg/kg/injection, schedule: Q01DX005 (ip), vehicle: Klucel (hydroxypropylcellulose) (HPC) 98 % of control | dose: 3.12 mg/kg/injection, schedule: Q01DX009 (ip), vehicle: Klucel (hydroxypropylcellulose) (HPC) 101 % of control and 118 % of control | dose: 6.25 mg/kg/injection, schedule: Q01DX005 (ip), vehicle: Klucel (hydroxypropylcellulose) (HPC) 96 % of control | dose: 12.5 mg/kg/injection, schedule: Q01DX005 (ip), vehicle: Klucel (hydroxypropylcellulose) (HPC) 108 % of control

COc1cc2c(cc1OC)-c1c(C)c3ccc(OC)c(NCCN)c3c[n+]1CC2
inactive: dose: 6.25 mg/kg/injection, schedule: Q04DX003 (ip), vehicle: water 110 % of control | dose: 12.5 mg/kg/injection, schedule: Q04DX003 (ip), vehicle: water 91 % of control | dose: 25.0 mg/kg/injection, schedule: Q04DX003 (ip), vehicle: water 101 % of control

COc1cc(O)c(C(C)c2ccccc2)cc1N=O (stereo not given)
inactive: [3] 92 % of control | [1] 87 % of control | [2] 92 % of control

CN(CCOC(N)=O)CCOC(N)=O
inactive: [8] 92 % of control | [9] 97 % of control | [10] 95 % of control

[N-]=[N+]=Nc1cc(-c2ccccc2)nc2cc3c(cc12)OCO3
inactive: [8] 97 % of control | [9] 105 % of control | [10] 108 % of control

CC(=O)/C(C=NC1CC(N=C/C(C(C)=O)=C(/C)O)CC(N=C/C(C(C)=O)=C(/C)O)C1)=C(/C)O (stereo not given)
inactive: [12] 101 % of control | [13] 101 % of control | [14] 93 % of control

CCN(CC)CCOC(=O)c1ccc(N)c2ccccc12
inactive: [3] 103 % of control | [1] 100 % of control

N#Cc1c(C(F)(F)F)cc(-c2cccs2)nc1C(C(=O)Nc1cc(Cl)c(Cl)cc1Cl)c1ccccc1 (stereo not given)
inactive: [6] 87 % of control | [7] 92 % of control | [11] 91 % of control

O=C(NN=C1c2ccccc2-c2ccccc21)Nc1ccccc1
inactive: [12] 95 % of control | [13] 96 % of control | [14] 96 % of control

— PubChem BioAssay AID330 (DTP/NCI, 2004)
